Experimental data published in patent US9550792B2, “Polycyclic substituted pyrazole kinase activity inhibitors and use thereof” (priority 2013, dated 2017).

Tests used:
[1] = target: T1, CDK2/A (Homo sapiens, UniProt P24941); test: Inhibitory activity to CDK2 (FRET); assay type: biochemical; settings: for inhibition at 1 µM: read-out: CDK2 inhibition % (1 × 10^−6 mol/L)
T1 construct: purchased
Description: CDK2/A was purchased in the form of a kit or obtained through purification.
Procedures: CDK2/A is diluted to a suitable concentration with kinase diluent. The kinase reaction mixture contains CDK2/A, peptide substrate, HEPES (pH7.5), BRIJ-35, MgCl2 and EDTA. CDK2 phospho-peptide substrate is used as the control of 100% phosphorylation and ATP-free as the control of 0% phosphorylation. After 1 h, the diluted Development Reagent A is added into the reaction system. Then the reaction is allowed to proceed for 1 h and then quenched with Stop Reagent. […] The inhibitions of the tested compounds are calculated according to the formula.

[2] = target: T2, Aurora A (Homo sapiens, UniProt O14965); test: Inhibitory activity to Aurora A (FRET); assay type: biochemical; settings: for inhibition at 1 µM: read-out: Aurora A inhibition % (1 × 10^−6 mol/L)
T2 construct: purchased
T2 sequence (O14965 1-403): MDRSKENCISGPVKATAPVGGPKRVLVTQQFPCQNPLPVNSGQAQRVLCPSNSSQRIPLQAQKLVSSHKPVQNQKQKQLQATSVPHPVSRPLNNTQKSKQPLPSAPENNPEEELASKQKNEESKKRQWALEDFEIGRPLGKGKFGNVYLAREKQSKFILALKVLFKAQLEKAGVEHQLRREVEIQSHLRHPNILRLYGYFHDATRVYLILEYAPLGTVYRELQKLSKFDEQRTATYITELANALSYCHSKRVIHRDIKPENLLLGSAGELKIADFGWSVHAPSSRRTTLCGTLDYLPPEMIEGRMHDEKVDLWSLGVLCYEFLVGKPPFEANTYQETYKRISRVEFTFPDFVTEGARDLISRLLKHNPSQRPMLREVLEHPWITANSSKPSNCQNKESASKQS
Description: The inhibitory activities of the synthesized compounds for Aurora A is determined by fluorescence resonance energy transfer (FRET) and were compared with the positive control drug so as to screen the compounds with better activities. Aurora A was purchased in the form of a kit or obtained through purification. Procedures: Aurora A is diluted to a suitable concentration with kinase diluent. The kinase reaction mixture contains Aurora A, peptide substrate, HEPES (pH7.5), BRIJ-35, MgCl2 and EDTA. Aurora A phospho-peptide substrate is used as the control of 100% phosphorylation and ATP-free as the control of 0% phosphorylation. After 1 h, the diluted Development Reagent A is added into the reaction system. Then the reaction is allowed to proceed for 1 h and then quenched with Stop Reagent. The excitation wavelength is 400 nm and the fluorescence intensity is detected at 445 nm (coumarin) and 520 nm (fluorescein). The inhibitions of the tested compounds are calculated according to the formula.

Compound | inhibition at 1 µM [1] [%] | inhibition at 1 µM [2] [%] | melting point [°C] | CDK2 inhibition % (1 × 10^−6 mol/L) [1] [%] | Aurora A inhibition % (1 × 10^−6 mol/L) [2] [%]
O=C(Nc1ccc(CN2CCOCC2)cc1)c1n[nH]cc1Nc1nccc2occc12 [Compound I-34, 4-(4-furo[3,2-c]pyridylamino)-N-(4-((4-morpholinyl)methyl)phenyl)-1H-3-pyrazolecarboxamide] | 65.8 | 50.5 | 268 to 271 |  | 
Cc1sc2ncnc(Nc3c[nH]nc3C(=O)Nc3ccc(CN4CCOCC4)cc3)c2c1C [Compound I-8, 4-(4-(5,6-dimethylthieno[2,3-d]pyrimidinyl)amino)-N-(4-((4-morpholinyl)methyl)phenyl)-1H-3-pyrazolecarboxamide] |  |  |  | 54.65 | 48.49
CN1CCN(Cc2ccc(NC(=O)c3n[nH]cc3Nc3nccc4ccoc34)cc2)CC1 [Compound I-37, 4-(7-furo[2,3-c]pyridylamino)-N-(4-((4-methyl-1-piperazinyl)methyl)phenyl)-1H-3-pyrazolecarboxamide] | 72.2 | 59.6 | 258 to 261 |  | 
Cc1cc2c(Nc3c[nH]nc3C(=O)Nc3ccc(CN4CCOCC4)cc3)ncnc2[nH]1 [Compound I-14, 4-(4-(6-methyl-7H-pyrrolo[2,3-d]pyrimidinyl)amino)-N-(4-((4-morpholinyl)methyl)phenyl)-1H-3-pyrazolecarboxamide] |  |  |  | 65.78 | 66.26
O=C(Nc1ccc(CN2CCOCC2)cc1)c1n[nH]cc1Nc1ncnc2ccoc12 [Compound I-24, 4-(4-furo[3,2-d]pyrimidinylamino)-N-(4-((4-morpholinyl)methyl)phenyl)-1H-3-pyrazolecarboxamide] | 67.1 | 49.2 | 271 to 273 |  | 
Cc1cc2c(Nc3c[nH]nc3C(=O)Nc3ccc(CN4CCOCC4)cc3)ncnc2s1 [Compound I-4, 4-(4-(6-methylthieno[2,3-d]pyrimidinyl)amino)-N-(4-((4-morpholinyl)methyl)phenyl)-1H-3-pyrazolecarboxamide] |  |  |  | 52.73 | 64.46
Cc1cc2c(Nc3c[nH]nc3C(=O)Nc3ccc(CN4CCOCC4)cc3)nccc2s1 [Compound I-28, 4-(4-(2-methylthieno[3,2-c]pyridyl)amino)-N-(4-((4-morpholinyl)methyl)phenyl)-1H-3-pyrazolecarboxamide] |  |  |  | 76.91 | 67.63
Cc1cc2c(Nc3c[nH]nc3C(=O)Nc3ccc(CN4CCOCC4)cc3)nccc2o1 [Compound I-36, 4-(4-(2-methylfuro[3,2-c]pyridyl)amino)-N-(4-((4-morpholinyl)methyl)phenyl)-1H-3-pyrazolecarboxamide] |  |  |  | 64.51 | 56.23
CN1CCN(Cc2ccc(NC(=O)c3n[nH]cc3Nc3ccnc4occc34)cc2)CC1 [Compound I-41, 4-(4-furo[2,3-b]pyridylamino)-N-(4-((4-methyl-1-piperazinyl)methyl)phenyl)-1H-3-pyrazolecarboxamide] | 56.2 | 42.6 | 273 to 276 |  | 
Cc1cc2c(Nc3c[nH]nc3C(=O)Nc3ccc(CN4CCN(C)CC4)cc3)nccc2o1 [Compound I-35, 4-(4-(2-methylfuro[3,2-c]pyridyl)amino)-N-(4-((4-methyl-1-piperazinyl)methyl)phenyl)-1H-3-pyrazolecarboxamide] |  |  |  | 73.23 | 55.99
Cc1csc2c(Nc3c[nH]nc3C(=O)Nc3ccc(CN4CCOCC4)cc3)nccc12 [Compound I-32, 4-(7-(3-methylthieno[2,3-c]pyridyl)amino)-N-(4-((4-morpholinyl)methy)phenyl)-1H-3-pyrazolecarboxamide] |  |  |  | 38.28 | 67.45
Cc1cc2ncnc(Nc3c[nH]nc3C(=O)Nc3ccc(CN4CCOCC4)cc3)c2[nH]1 [Compound I-20, 4-(4-(6-methyl-5H-pyrrolo[3,2-d]pyrimidinyl)amino)-N-(4-((4-morpholinyl)methyl)phenyl)-1H-3-pyrazolecarboxamide] |  |  |  | 62.25 | 60.72
O=C(Nc1ccc(CN2CCOCC2)cc1)c1n[nH]cc1Nc1nccc2ccoc12 [Compound I-38, 4-(7-furo[2,3-c]pyridylamino)-N-(4-((4-morpholinyl)methyl)phenyl)-1H-3-pyrazolecarboxamide] | 64.8 | 51 | 268 to 272 |  | 
CN1CCN(Cc2ccc(NC(=O)c3n[nH]cc3Nc3nccc4occc34)cc2)CC1 [Compound I-33, 4-(4-furo[3,2-c]pyridylamino)-N-(4-((4-methyl-1-piperazinyl)menthyl)phenyl)-1H-3-pyrazolecarboxamide] |  |  |  | 44.93 | 45.08
4-(7-(1H-pyrrolo[2,3-c]pyridyl)amino)-N-(4-((4-morpholinyl)methyl)phenyl)-1H-3-pyrazolecarboxamide [Compound I-44] |  |  |  | 75.91 | 54.94
Cc1csc2ncnc(Nc3c[nH]nc3C(=O)Nc3ccc(CN4CCOCC4)cc3)c12 [Compound I-6, 4-(4-(5-methylthieno[2,3-d]pyrimidinyl)amino)-N-(4-((4-morpholinyl)methyl)phenyl)-1H-3-pyrazolecarboxamide] |  |  |  | 60.68 | 54.80
O=C(Nc1ccc(CN2CCOCC2)cc1)c1n[nH]cc1Nc1ncnc2cc[nH]c12 [Compound I-18, 4-(4-(5H-pyrrolo[3,2-d]pyrimidinyl)amino)-N-(4-((4-morpholinyl)methyl)phenyl)-1H-3-pyrazolecarboxamide] |  |  |  | 64.99 | 53.66
Cc1cc2ccnc(Nc3c[nH]nc3C(=O)Nc3ccc(CN4CCN(C)CC4)cc3)c2[nH]1 [Compound I-45, 4-(7-(2-methyl-1H-pyrrolo[2,3-c]pyridyl)amino)-N-(4-((4-methyl-1-piperazinyl)methyl)phenyl)-1H-3-pyrazolecarboxamide] |  |  |  | 60.11 | 63.21
Cc1cc2ccnc(Nc3c[nH]nc3C(=O)Nc3ccc(CN4CCOCC4)cc3)c2[nH]1 [Compound I-46, 4-(7-(2-methyl-1H-pyrrolo[2,3-c]pyridyl)amino)-N-(4-((4-morpholinyl)methyl)phenyl)-1H-3-pyrazolecarboxamide] |  |  |  | 68.57 | 60.73
Cc1sc2ncnc(Nc3c[nH]nc3C(=O)Nc3ccc(CN4CCN(C)CC4)cc3)c2c1C [Compound I-7, 4-(4-(5,6-dimethylthieno[2,3-d]pyrimidinyl)amino)-N-(4-((4-methyl-1-piperazinyl)methyl)phenyl)-1H-3-pyrazolecarboxamide] |  |  |  | 65.12 | 54.93
O=C(Nc1ccc(CN2CCOCC2)cc1)c1n[nH]cc1Nc1ncnc2[nH]ccc12 [Compound I-12, 4-(4-(7H-pyrrolo[2,3-d]pyrimidinyl)amino)-N-(4-((4-morpholinyl)methyl)phenyl)-1H-3-pyrazolecarboxamide] |  |  |  | 66.39 | 49.44
CN1CCN(Cc2ccc(NC(=O)c3n[nH]cc3Nc3nccc4cc[nH]c34)cc2)CC1 [Compound I-43, 4-(7-(1H-pyrrolo[2,3-c]pyridyl)amino)-N-(4-((4-methyl-1-piperazinyl)methyl)phenyl)-1H-3-pyrazolecarboxamide] |  |  |  | 76.09 | 55.02
Cc1csc2c(Nc3c[nH]nc3C(=O)Nc3ccc(CN4CCN(C)CC4)cc3)nccc12 [Compound I-31, 4-(7-(3-methylthieno[2,3-c]pyridyl)amino)-N-(4-((4-methyl-1-piperazinyl)methyl)phenyl)-1H-3-pyrazolecarboxamide] |  |  |  | 45.34 | 70.27
Cc1csc2ncnc(Nc3c[nH]nc3C(=O)Nc3ccc(CN4CCN(C)CC4)cc3)c12 [Compound I-5, 4-(4-(5-methylthieno[2,3-d]pyrimidinyl)amino)-N-(4-((4-methyl-1-piperazinyl)methyl)phenyl)-1H-3-pyrazolecarboxamide] |  |  |  | 51.24 | 58.62
